Assay results taken from PubChem BioAssay AID1745844 (Carcinogenic Potency Database (CPDB), 2022).
Values joined by “and” are separate entries in the source; they are usually repeats but may differ in a detail not shown here. Equal entries are not always repeated. Active and inactive are the calls of the source. No rule for the calls is given here.

Tested on: rodent lifetime carcinogenesis bioassay, tumor incidence TD50
Test: chronic cancer bioassays in animals – CPDB, compiled studies (AID 1745844)

C=CC(=C)C
TD50 (mouse, strain B6C3F1, females, inhaled, site: Harderian gland, lesion: adenoma, dosed 80 weeks, study length 105 weeks): 319 mg/kg/day | TD50 (mouse, strain B6C3F1, females, inhaled, site: pituitary gland, lesion: pars distalis adenoma, dosed 80 weeks, study length 105 weeks): 247 mg/kg/day | TD50 (mouse, strain B6C3F1, females, inhaled, site: spleen, lesion: hemangiosarcoma, dosed 80 weeks, study length 105 weeks): 682 mg/kg/day | TD50 (mouse, strain B6C3F1, males, inhaled, site: Harderian gland, lesion: adenoma + carcinoma, dosed 26 weeks, study length 53 weeks): 96.8 mg/kg/day | TD50 (mouse, strain B6C3F1, males, inhaled, site: Harderian gland, lesion: adenoma, dosed 26 weeks, study length 53 weeks): 96.8 mg/kg/day | TD50 (mouse, strain B6C3F1, males, inhaled, site: Harderian gland, lesion: adenoma, dosed 40 weeks, study length 105 weeks): 739 mg/kg/day | TD50 (mouse, strain B6C3F1, males, inhaled, site: Harderian gland, lesion: adenoma, dosed 80 weeks, study length 96 weeks): 711 mg/kg/day | TD50 (mouse, strain B6C3F1, males, inhaled, site: Harderian gland, lesion: adenoma, dosed 80 weeks, study length 105 weeks): 881 mg/kg/day | TD50 (mouse, strain B6C3F1, males, inhaled, site: Harderian gland, lesion: carcinoma, dosed 26 weeks, study length 53 weeks): 14700 mg/kg/day | TD50 (mouse, strain B6C3F1, males, inhaled, site: Harderian gland, lesion: carcinoma, dosed 80 weeks, study length 96 weeks): 12800 mg/kg/day | TD50 (mouse, strain B6C3F1, males, inhaled, site: Harderian gland, lesion: carcinoma, dosed 80 weeks, study length 105 weeks): 15000 mg/kg/day | TD50 (mouse, strain B6C3F1, males, inhaled, site: any site (literature study), lesion: several types, types named in the paper, dosed 26 weeks, study length 53 weeks): 348 mg/kg/day | TD50 (mouse, strain B6C3F1, males, inhaled, site: forestomach + Harderian gland + liver + lung, lesion: squamous-cell carcinoma + squamous-cell papilloma + adenoma + carcinoma + hepatocellular adenoma + hepatocellular carcinoma + alveol, dosed 26 weeks, study length 53 weeks): 355 mg/kg/day | TD50 (mouse, strain B6C3F1, males, inhaled, site: forestomach, lesion: squamous-cell carcinoma + squamous-cell papilloma, dosed 26 weeks, study length 53 weeks): 1310 mg/kg/day | TD50 (mouse, strain B6C3F1, males, inhaled, site: forestomach, lesion: squamous-cell carcinoma, dosed 26 weeks, study length 53 weeks): 4850 mg/kg/day | TD50 (mouse, strain B6C3F1, males, inhaled, site: forestomach, lesion: squamous-cell carcinoma, dosed 80 weeks, study length 96 weeks): 25800 mg/kg/day | TD50 (mouse, strain B6C3F1, males, inhaled, site: forestomach, lesion: squamous-cell carcinoma, dosed 80 weeks, study length 105 weeks): 22200 mg/kg/day | TD50 (mouse, strain B6C3F1, males, inhaled, site: forestomach, lesion: squamous-cell papilloma, dosed 26 weeks, study length 53 weeks): 1860 mg/kg/day | TD50 (mouse, strain B6C3F1, males, inhaled, site: forestomach, lesion: squamous-cell papilloma, dosed 40 weeks, study length 105 weeks): 15600 mg/kg/day | TD50 (mouse, strain B6C3F1, males, inhaled, site: forestomach, lesion: squamous-cell papilloma, dosed 80 weeks, study length 96 weeks): 25800 mg/kg/day | TD50 (mouse, strain B6C3F1, males, inhaled, site: forestomach, lesion: squamous-cell papilloma, dosed 80 weeks, study length 105 weeks): 45000 mg/kg/day | TD50 (mouse, strain B6C3F1, males, inhaled, site: heart, lesion: hemangiosarcoma, dosed 40 weeks, study length 105 weeks): 32900 mg/kg/day | TD50 (mouse, strain B6C3F1, males, inhaled, site: heart, lesion: hemangiosarcoma, dosed 80 weeks, study length 96 weeks): 25800 mg/kg/day | TD50 (mouse, strain B6C3F1, males, inhaled, site: heart, lesion: hemangiosarcoma, dosed 80 weeks, study length 105 weeks): 39000 mg/kg/day | TD50 (mouse, strain B6C3F1, males, inhaled, site: liver, lesion: hepatocellular adenoma + hepatoblastoma + hepatocellular carcinoma, dosed 26 weeks, study length 53 weeks): 183 mg/kg/day | TD50 (mouse, strain B6C3F1, males, inhaled, site: liver, lesion: hepatocellular adenoma + hepatocellular carcinoma, dosed 26 weeks, study length 53 weeks): 183 mg/kg/day | TD50 (mouse, strain B6C3F1, males, inhaled, site: liver, lesion: hepatocellular adenoma, dosed 26 weeks, study length 53 weeks): 150 mg/kg/day | TD50 (mouse, strain B6C3F1, males, inhaled, site: liver, lesion: hepatocellular adenoma, dosed 40 weeks, study length 105 weeks): 1070 mg/kg/day | TD50 (mouse, strain B6C3F1, males, inhaled, site: liver, lesion: hepatocellular adenoma, dosed 80 weeks, study length 96 weeks): 1760 mg/kg/day | TD50 (mouse, strain B6C3F1, males, inhaled, site: liver, lesion: hepatocellular adenoma, dosed 80 weeks, study length 105 weeks): 1570 mg/kg/day | TD50 (mouse, strain B6C3F1, males, inhaled, site: liver, lesion: hepatocellular carcinoma, dosed 26 weeks, study length 53 weeks): 1270 mg/kg/day | TD50 (mouse, strain B6C3F1, males, inhaled, site: liver, lesion: hepatocellular carcinoma, dosed 40 weeks, study length 105 weeks): 2330 mg/kg/day | TD50 (mouse, strain B6C3F1, males, inhaled, site: liver, lesion: hepatocellular carcinoma, dosed 80 weeks, study length 96 weeks): 3290 mg/kg/day | TD50 (mouse, strain B6C3F1, males, inhaled, site: liver, lesion: hepatocellular carcinoma, dosed 80 weeks, study length 105 weeks): 4850 mg/kg/day | TD50 (mouse, strain B6C3F1, males, inhaled, site: lung, lesion: alveolar/bronchiolar adenoma + alveolar/bronchiolar carcinoma, dosed 26 weeks, study length 53 weeks): 752 mg/kg/day | TD50 (mouse, strain B6C3F1, males, inhaled, site: lung, lesion: alveolar/bronchiolar adenoma, dosed 26 weeks, study length 53 weeks): 836 mg/kg/day | TD50 (mouse, strain B6C3F1, males, inhaled, site: lung, lesion: alveolar/bronchiolar adenoma, dosed 40 weeks, study length 105 weeks): 908 mg/kg/day | TD50 (mouse, strain B6C3F1, males, inhaled, site: lung, lesion: alveolar/bronchiolar adenoma, dosed 80 weeks, study length 96 weeks): 4810 mg/kg/day | TD50 (mouse, strain B6C3F1, males, inhaled, site: lung, lesion: alveolar/bronchiolar adenoma, dosed 80 weeks, study length 105 weeks): 1660 mg/kg/day | TD50 (mouse, strain B6C3F1, males, inhaled, site: lung, lesion: alveolar/bronchiolar carcinoma, dosed 26 weeks, study length 53 weeks): 2790 mg/kg/day | TD50 (mouse, strain B6C3F1, males, inhaled, site: lung, lesion: alveolar/bronchiolar carcinoma, dosed 40 weeks, study length 105 weeks): 9230 mg/kg/day | TD50 (mouse, strain B6C3F1, males, inhaled, site: lung, lesion: alveolar/bronchiolar carcinoma, dosed 80 weeks, study length 96 weeks): 8410 mg/kg/day | TD50 (mouse, strain B6C3F1, males, inhaled, site: lung, lesion: alveolar/bronchiolar carcinoma, dosed 80 weeks, study length 105 weeks): 6680 mg/kg/day | TD50 (mouse, strain B6C3F1, males, inhaled, site: lymphoreticular system, lesion: histiocytic sarcoma, dosed 40 weeks, study length 105 weeks): 4430 mg/kg/day | TD50 (mouse, strain B6C3F1, males, inhaled, site: lymphoreticular system, lesion: histiocytic sarcoma, dosed 80 weeks, study length 96 weeks): 3450 mg/kg/day | TD50 (mouse, strain B6C3F1, males, inhaled, site: lymphoreticular system, lesion: histiocytic sarcoma, dosed 80 weeks, study length 105 weeks): 150000 mg/kg/day | TD50 (mouse, strain B6C3F1, males, inhaled, site: spleen, lesion: hemangiosarcoma, dosed 80 weeks, study length 96 weeks): 25800 mg/kg/day | TD50 (rat, strain Fischer 344, females, inhaled, site: any site (literature study), lesion: several types, types named in the paper, dosed 105 weeks, study length 105 weeks): 6940 mg/kg/day | TD50 (rat, strain Fischer 344, females, inhaled, site: brain, meninges, lesion: granular-cell tumor, benign, dosed 105 weeks, study length 105 weeks): 40600 mg/kg/day | TD50 (rat, strain Fischer 344, females, inhaled, site: brain, meninges, lesion: sarcoma, dosed 105 weeks, study length 105 weeks): 50800 mg/kg/day | carcinogen call (rat, strain Fischer 344, females, inhaled, site: brain, lesion: astrocytoma, benign, dosed 105 weeks, study length 105 weeks): e | TD50 (rat, strain Fischer 344, females, inhaled, site: brain, lesion: malignant glioma, dosed 105 weeks, study length 105 weeks): 30800 mg/kg/day | TD50 (rat, strain Fischer 344, females, inhaled, site: brain, lesion: medulloblastoma, malignant, dosed 105 weeks, study length 105 weeks): 52800 mg/kg/day | TD50 (rat, strain Fischer 344, females, inhaled, site: liver, lesion: hepatocellular adenoma + hepatoblastoma + hepatocellular carcinoma, dosed 105 weeks, study length 105 weeks): 25300 mg/kg/day | TD50 (rat, strain Fischer 344, females, inhaled, site: mammary gland, lesion: fibroadenoma + fibroadenoma, multiple, dosed 105 weeks, study length 105 weeks): 3340 mg/kg/day | TD50 (rat, strain Fischer 344, females, inhaled, site: mammary gland, lesion: fibroadenoma, multiple, dosed 105 weeks, study length 105 weeks): 206 mg/kg/day | TD50 (rat, strain Fischer 344, males, inhaled, site: kidney + mammary gland + testis, lesion: tubule adenoma + carcinoma + fibroadenoma + fibroadenoma, multiple + interstitial-cell adenoma, bilateral + interstitial-cell aden, dosed 104 weeks, study length 104 weeks): 988 mg/kg/day | TD50 (rat, strain Fischer 344, males, inhaled, site: kidney, lesion: tubule adenoma + tubule carcinoma, dosed 104 weeks, study length 104 weeks): 3150 mg/kg/day and 2290 mg/kg/day | TD50 (rat, strain Fischer 344, males, inhaled, site: kidney, lesion: tubule adenoma, dosed 104 weeks, study length 104 weeks): 3150 mg/kg/day and 2290 mg/kg/day | TD50 (rat, strain Fischer 344, males, inhaled, site: mammary gland, lesion: carcinoma + fibroadenoma, dosed 104 weeks, study length 104 weeks): 670 mg/kg/day | TD50 (rat, strain Fischer 344, males, inhaled, site: mammary gland, lesion: carcinoma, dosed 104 weeks, study length 104 weeks): 7880 mg/kg/day | TD50 (rat, strain Fischer 344, males, inhaled, site: mammary gland, lesion: fibroadenoma + fibroadenoma, multiple, dosed 104 weeks, study length 104 weeks): 655 mg/kg/day | TD50 (rat, strain Fischer 344, males, inhaled, site: mammary gland, lesion: fibroadenoma, multiple, dosed 104 weeks, study length 104 weeks): 2220 mg/kg/day | TD50 (rat, strain Fischer 344, males, inhaled, site: mammary gland, lesion: fibroadenoma, dosed 104 weeks, study length 104 weeks): 655 mg/kg/day | TD50 (rat, strain Fischer 344, males, inhaled, site: testis, lesion: interstitial-cell adenoma, bilateral + interstitial-cell adenoma, dosed 104 weeks, study length 104 weeks): 914 mg/kg/day | TD50 (rat, strain Fischer 344, males, inhaled, site: testis, lesion: interstitial-cell adenoma, dosed 26 weeks, study length 52 weeks): 316 mg/kg/day

COc1ccccc1N1CCN(CCCNc2cc(=O)n(C)c(=O)n2C)CC1
carcinogen call (rat, strain Slc-Wistar, females, by gavage, site: liver, lesion: one or several types, types not named, dosed 52 weeks, study length 52 weeks): negative (inactive) | carcinogen call (rat, strain Slc-Wistar, males, by gavage, site: liver, lesion: one or several types, types not named, dosed 52 weeks, study length 52 weeks): negative (inactive)

O=NN1CSCSC1
TD50 (rat, strain Fischer 344, females, by gavage, site: liver, lesion: hepatocellular carcinoma, dosed 47 weeks, study length 110 weeks): 10.5 mg/kg/day (inactive) | TD50 (rat, strain Fischer 344, females, by gavage, site: nasal mucosa, lesion: carcinoma, dosed 47 weeks, study length 110 weeks): 5.11 mg/kg/day

CC(=O)O[C@]1(C(C)=O)CC[C@H]2[C@@H]3C=C(Cl)C4=CC(=O)[C@@H]5C[C@@H]5[C@]4(C)[C@H]3CC[C@@]21C
TD50 (mouse, strain C57BL/10J, females, in feed, site: liver, lesion: hepatocellular adenoma, dosed 97 weeks, study length 97 weeks): 1120 mg/kg/day | TD50 (mouse, strain C57BL/10J, females, in feed, site: liver, lesion: hepatocellular carcinoma, dosed 97 weeks, study length 97 weeks): 254 mg/kg/day | TD50 (mouse, strain C57BL/10J, females, in feed, site: liver, lesion: several types, types named in the paper, dosed 97 weeks, study length 97 weeks): 254 mg/kg/day | TD50 (mouse, strain C57BL/10J, females, in feed, site: pylorus, lesion: adenomatous polyp, dosed 97 weeks, study length 97 weeks): 16.8 mg/kg/day | TD50 (mouse, strain C57BL/10J, males, in feed, site: liver, lesion: hepatocellular adenoma, dosed 104 weeks, study length 104 weeks): 333 mg/kg/day | TD50 (mouse, strain C57BL/10J, males, in feed, site: liver, lesion: hepatocellular carcinoma, dosed 104 weeks, study length 104 weeks): 179 mg/kg/day | TD50 (mouse, strain C57BL/10J, males, in feed, site: liver, lesion: several types, types named in the paper, dosed 104 weeks, study length 104 weeks): 115 mg/kg/day | TD50 (mouse, strain C57BL/10J, males, in feed, site: pylorus, lesion: adenomatous polyp, dosed 104 weeks, study length 104 weeks): 31.6 mg/kg/day
